Data published in patent US20170204123A1, “Gold (I)-Phosphine Compounds as Anti-Bacterial Agents” (Auspherix Limited, priority 2014, published 2017).

Tested on: chinese hamster ovary cells (CHO)
Test: CHO toxicity assay (CCK-8 cell viability)
Type: cell-based
Conditions: 50% growth inhibition vs untreated control, 24 hours
Procedure: Cell counting kit-8 (Sigma, CCK-8) assays were performed to assess the effect of compounds on cell viability. The assay is based on the reduction of a water-soluble tetrazolium salt (WST-8) by cellular dehydrogenases to a formazan dye which can be detected spectroscopically. 96-well plates were seeded with chinese hamster ovary cells (CHO) cells at 7×10^3 cells per well in Dulbecco's modified Eagle's medium nutrient mixture F-12 Ham (containing 15 mM HEPES, NaHCO3, pyridoxine and L-glutamine) supplemented with 10% fetal bovine serum (FBS). The following day serial dilutions of compounds (dissolved and diluted in DMSO) were added to the cells in duplicates. Control included an ‘untreated’ control where cells were grown in the presence of 1% DMSO and a medium only control (plus 1% DMSO). After 24 hours CCK-8 reagent (10 μl) was added to each well and cell viability was assessed by measuring the absorbance at a wavelength of 450 nm after 2.5-3 hours. Only living cells can reduce the tetrazolium salts into coloured formazan products. Results were expressed as 50% growth inhibition (TD50) values compared to ‘untreated’ control.
The therapeutic index was calculated as the ratio of the dose that produces growth inhibition in 50% of CHO cells divided by the dose where 50% of S. aureus growth is inhibited.

Structure (SMILES) | CHO cell TD 50 [µg/mL]
C[P](=[Au][S]c1nc2ncccc2o1)(c1ccccc1)c1ccccc1 [Compound 11] | 2.0
COC(=O)[C@H](C[S][Au]=[P](C)(c1ccccc1)c1ccccc1)NC(C)=O [Compound 10] | 1.2
CC[P](CC)(CC)=[Au][S]C[C@H](NC(C)=O)C(=O)OC [Compound 7] | 2.6
CC[P](CC)(CC)=[Au][Se]C[C@H](NC(C)=O)C(=O)OC [Compound 12] | 6.5
CC[P](CC)(CC)=[Au][S]c1ncccn1 [Compound 3] | 0.6
CC[P](CC)(CC)=[Au][S][C@H]1CC[C@H](O)CC1 [Compound 6] | 1.5
CC[P](CC)(CC)=[Au][S]c1cccnn1 [Compound 4] | 1.4
CC[P](CC)(CC)=[Au][S]C1CCOCC1 [Compound 1] | 0.5
CC[P](CC)(CC)=[Au][S]c1nc2ncccc2o1 [Compound 8] | 1.6
C[P](=[Au][S]c1nc2ccccc2[nH]1)(c1ccccc1)c1ccccc1 [Compound 9] | 2.6
CC[P](CC)(CC)=[Au][S]C1CCN(C(=O)OC(C)(C)C)CC1 [Compound 2] | 0.7
CC[P](CC)(CC)=[Au][S]c1nc2ccccc2[nH]1 [Compound 5] | 1.5

Tested on: human hepatocyte cell line (HepG2)
Test: HepG2 cell inhibition assay (CCK-8 cell viability)
Type: cell-based
Conditions: 50% growth inhibition vs untreated control, 24 hours
Procedure: HepG2 Cell Inhibition Assay
Cell counting kit-8 (Sigma, CCK-8) assays were performed to assess the effect of compounds on cell viability. The assay is based on the reduction of a water-soluble tetrazolium salt (WST-8) by cellular dehydrogenases to a formazan dye which can be detected spectroscopically. 96-well plates were seeded with the human hepatocyte cell line (HepG2) at approximately 8×10^3 cells per well in Minimum Essential Medium Eagle (EMEM) with Earle's salts and sodium bicarbonate supplemented with 10% heat-inactivated foetal bovine serum 2 mM glutamine and 1% non-essential amino acids (NEAA). The following day serial dilutions of compounds (dissolved and diluted in DMSO) were added to the cells in duplicates. Control included an ‘untreated’ control where cells were grown in the presence of 1% DMSO and a medium only control (plus 1% DMSO). After 24 hours CCK-8 reagent (10 μl) was added to each well and cell viability was assessed by measuring the absorbance at a wavelength of 450 nm after 2-3 h hours. Only living cells can reduce the tetrazolium salts into coloured formazan products. Results were expressed as 50% growth inhibition (TD50) values compared to ‘untreated’ control. The therapeutic index was calculated as the ratio of the dose that produces growth inhibition in 50% of HepG2 cells divided by the dose where 50% of S. aureus growth is inhibited.

Structure (SMILES) | HepG2 cell TD50 [µg/mL]
COC(=O)[C@H](C[Se][Au]=[P](C(C)C)(C(C)C)C(C)C)NC(C)=O [Compound 23] | 12
CC[P](CC)(CC)=[Au][S]C[C@H](NC(C)=O)C(N)=O [Compound 16] | 9
C[P](C)(=[Au][S]c1nc2ccccc2[nH]1)c1ccccc1 [Compound 13] | 8.5
COC(=O)[C@H](C[Se][Au]=[P](C)(c1ccccc1)c1ccccc1)NC(C)=O [Compound 22] | 10
C[P](C)(=[Au][S]c1nc2ncccc2o1)c1ccccc1 [Compound 14] | 9
COC(=O)[C@H](C[S][Au]=[P](C)(C)c1ccccc1)NC(C)=O [Compound 15] | 6
CC(C)[P](=[Au][S]c1nc2ccccc2[nH]1)(C(C)C)C(C)C [Compound 20] | 6
